Source: patent publication US6451800B1, “Phenylpiperazine derivatives as integrin αvβ3 antagonists” (Meiji Seika Kaisha, Ltd., priority 1998, dated 2002)
pIC50: −log10 of the molar value. Values belong to the compound of their own block, whether it stands above or below them.

How the values were obtained:
Oral absorption in rats = type: in vivo; settings: data not shown
Description: Therefore, any of the compounds, wherein R^9 represents an alkyl group or a hydrogen atom, can be used in the treatment of the above diseases.

[1] = tested on: human platelet aggregation; experiment: Human platelet aggregation inhibitory activity (method of Pharmacological Test 1 in WO 94/21599); type: cell-based; settings: for pIC50: read-out: IC50, human platelet aggregation inhibition
Experimental: (§1) GP IIb/IIIa Antagonistic Activity and Human Platelet Aggregation Inhibitory Activity
Human platelet aggregation inhibitory activity was measured for the compounds according to the present invention. The measurement of the human platelet aggregation activity was carried out according to the method described in Pharmacological Test 1 in WO 94/21599.

GP IIb/IIIa = GP IIb/IIIa (Homo sapiens, UniProt P05106+P08514); experiment: GP IIb/IIIa antagonistic activity (method of Pharmacological Test 2 in WO 94/21599); type: binding
Experimental: as §1
GP IIb/IIIa antagonistic activity was measured for the compounds according to the present invention. The measurement of the GP IIb/IIIa antagonistic activity was carried out according to the method described in Pharmacological Test 2 in WO 94/21599.

[2] = biological target: T1, integrin αvβ3 (vitronectin receptor purified from the human placenta) (Homo sapiens, UniProt P05106+P06756); experiment: αvβ3 binding assay (vitronectin-vitronectin receptor binding assay); settings: for pIC50: vitronectin receptor from human placenta, read-out: IC50, inhibition of binding between vitronectin and vitronectin receptor (αvβ3 binding inhibitory activity)
T1 construct: a vitronectin receptor (protein content: 118 μg/ml) purified from the human placenta; from tissue; host or cells: human placenta
Experimental: Integrin αvβ3 antagonistic activity was measured for the compounds according to the present invention in a vitronectin-vitronectin receptor binding assay system in accordance with the method of Kouns et al. (W. C. Kouns, D. Kirchhofer, P. Hadvary, A. Edenhofer, T. Weller, G. Pfenninger, H. R. Baumgartner, L. K. Jennings and B. Steiner, Blood, 8, 2539-2547 (1992)).
Specifically, a vitronectin receptor (protein content: 118 μg/ml) purified from the human placenta in accordance with the method of Pytela et al. (R. Pytela, M. D. Pierschbacher, S. Argraves, S. Suzuki, and E. Ruoslahti, Method in Enzymology, 144, 475-489 (1987)) was diluted 50 times with TBS (20 mM Tris-HCl, 150 mM NaCl, 1 mM CaCl2, 1 mM MgCl2, pH 7.4), and distributed and coated on wells (50 μl/well) of a plate (Maxisorp, Nunc, 96 well Immuno Plate). The plate was then allowed to stand at 4° C. for 1 day, washed twice with TBS (200 μl/well), and then subjected to blocking with TBS (150 μl/well) containing 1% bovine serum albumin (SIGMA) at 4° C. overnight. After washing twice with TBS (200 μl/well), 50 μl of vitronectin (CALBIOCHEM) adjusted to 0.2 μg/ml by the addition of TBS (TBS-Tween) containing 0.01% Tween-20 was mixed with 50 μl of each test compound adjusted to each concentration in wells, and a reaction was allowed to proceed at room temperature for 4 hr. After the completion of the reaction, the wells were washed five times with TBS-Tween. A solution prepared by diluting anti-vitronectin rabbit antiserum (CHEMICON) 500 times with TBS-Tween was added as a primary antibody in an amount of 50 μl per well, and a reaction was allowed to proceed at room temperature for 1.5 hr. After washing five times with 200 μl/well of TBS-Tween, a peroxidase (POD)-labeled anti-rabbit IgG antibody solution (CAPPEL) diluted 500 times with TBS-Tween was added as a secondary antibody in an amount of 50 μl/well, and a reaction was allowed to proceed at room temperature for 1.5 hr. After washing five times with TBS-Tween (200 μl /well), ABTS (2,2′-azino-bis(3-ethylbenzthiazoline-6-sulfonic acid), SIGMA) was adjusted to 1 mg/ml by the addition of a ten-fold diluted POD-buffer (ZYMED), and added in an amount of 50 μl/well, and a reaction was allowed to proceed for 5 to 10 min. A 0.1 M citric acid buffer (pH 4.3) containing 0.05% NaN3 was added in an amount of 50 μl/well to stop the reaction, followed by the measurement of the absorbance at 415 nm with a microplate reader (MTP 32, Corona Electric) (reference: 675 nm). The total binding was defined as the absorbance after a reaction using 50 μl of TBS-Tween instead of the test compound, and the non-specific binding (100% inhibition) was defined as the absorbance after a reaction using 50 μl of TBS-Tween containing 2×10^−3 M RGDS. The inhibition was calculated by the following equation: [formula]
(§2) IC50 was determined from a primary regression line of the logarithm of each concentration of the test compound and the logarithm of (100−inhibition)/inhibition.

[3] = biological target: T2, integrin α5β1 (fibronectin receptor purified from the human placenta) (Homo sapiens, UniProt P05556+P08648); experiment: α5β1 binding assay (fibronectin-fibronectin receptor binding assay); settings: read-out: IC50, integrin α5β1 antagonistic activity (fibronectin-fibronectin receptor binding)
T2 construct: a fibronectin receptor (protein content: 52.1 μg/ml) purified from the human placenta; from tissue; host or cells: human placenta
Experimental: The plate was then allowed to stand at 4° C. for one day, washed twice with TBS (200 μl/well), and then subjected to blocking with TBS (150 μl/well) containing 3% skim milk (DIFCO) at 4° C. overnight. […] After the completion of the reaction, the wells were washed five times with TBS-Tween. A solution prepared by diluting a peroxidase-labeled fibronectin antibody (CAPPEL) 500 times with TBS-Tween was added in an amount of 50 μl per well, and a reaction was allowed to proceed at room temperature for 1.5 hr. After washing five times with TBS-Tween (200 μl/well), ABTS (SIGMA) adjusted to 1 mg/ml by the addition of a ten-fold diluted POD-buffer (ZYMED) was added in an amount of 50 μl/well, and a reaction was allowed to proceed for 5 to 10 min. A 0.1 M citric acid buffer (pH 4.3) containing 0.05% NaN3 was added in an amount of 50 μl/well to stop the reaction, followed by the measurement of the absorbance at 415 nm with a microplate reader (MTP 32, Corona Electric) (reference: 675 nm). […] The inhibition was calculated by the following equation: [formula]
as §2

T1 sequence (P06756 31-889 limits assumed): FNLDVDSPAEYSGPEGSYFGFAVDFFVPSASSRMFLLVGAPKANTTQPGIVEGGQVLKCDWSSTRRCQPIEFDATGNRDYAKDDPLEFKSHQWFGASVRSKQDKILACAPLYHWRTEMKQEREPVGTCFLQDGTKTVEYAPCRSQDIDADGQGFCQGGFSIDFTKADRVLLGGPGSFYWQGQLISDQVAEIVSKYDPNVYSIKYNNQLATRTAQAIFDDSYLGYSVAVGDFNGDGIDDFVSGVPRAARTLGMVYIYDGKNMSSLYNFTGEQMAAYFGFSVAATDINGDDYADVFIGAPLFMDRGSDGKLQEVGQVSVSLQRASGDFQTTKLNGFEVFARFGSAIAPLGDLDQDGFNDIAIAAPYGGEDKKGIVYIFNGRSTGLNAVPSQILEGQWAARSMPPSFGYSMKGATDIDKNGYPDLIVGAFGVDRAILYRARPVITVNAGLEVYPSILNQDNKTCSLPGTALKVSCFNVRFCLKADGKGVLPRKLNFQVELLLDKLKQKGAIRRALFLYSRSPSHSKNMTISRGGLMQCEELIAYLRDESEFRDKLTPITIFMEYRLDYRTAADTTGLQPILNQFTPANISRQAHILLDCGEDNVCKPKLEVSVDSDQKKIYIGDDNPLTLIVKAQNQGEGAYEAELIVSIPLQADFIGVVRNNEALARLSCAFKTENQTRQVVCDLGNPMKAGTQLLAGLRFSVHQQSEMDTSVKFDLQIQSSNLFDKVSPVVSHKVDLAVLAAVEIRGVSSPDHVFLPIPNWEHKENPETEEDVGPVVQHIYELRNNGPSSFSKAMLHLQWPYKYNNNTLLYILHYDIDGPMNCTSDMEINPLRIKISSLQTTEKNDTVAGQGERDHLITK
T1 sequence (P06756 891-1048 partner limits assumed): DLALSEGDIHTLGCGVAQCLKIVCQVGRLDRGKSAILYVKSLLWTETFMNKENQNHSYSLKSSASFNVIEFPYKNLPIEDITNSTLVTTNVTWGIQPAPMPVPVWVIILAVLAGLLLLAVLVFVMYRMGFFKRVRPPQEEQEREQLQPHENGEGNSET
T1 sequence (P05106 27-788): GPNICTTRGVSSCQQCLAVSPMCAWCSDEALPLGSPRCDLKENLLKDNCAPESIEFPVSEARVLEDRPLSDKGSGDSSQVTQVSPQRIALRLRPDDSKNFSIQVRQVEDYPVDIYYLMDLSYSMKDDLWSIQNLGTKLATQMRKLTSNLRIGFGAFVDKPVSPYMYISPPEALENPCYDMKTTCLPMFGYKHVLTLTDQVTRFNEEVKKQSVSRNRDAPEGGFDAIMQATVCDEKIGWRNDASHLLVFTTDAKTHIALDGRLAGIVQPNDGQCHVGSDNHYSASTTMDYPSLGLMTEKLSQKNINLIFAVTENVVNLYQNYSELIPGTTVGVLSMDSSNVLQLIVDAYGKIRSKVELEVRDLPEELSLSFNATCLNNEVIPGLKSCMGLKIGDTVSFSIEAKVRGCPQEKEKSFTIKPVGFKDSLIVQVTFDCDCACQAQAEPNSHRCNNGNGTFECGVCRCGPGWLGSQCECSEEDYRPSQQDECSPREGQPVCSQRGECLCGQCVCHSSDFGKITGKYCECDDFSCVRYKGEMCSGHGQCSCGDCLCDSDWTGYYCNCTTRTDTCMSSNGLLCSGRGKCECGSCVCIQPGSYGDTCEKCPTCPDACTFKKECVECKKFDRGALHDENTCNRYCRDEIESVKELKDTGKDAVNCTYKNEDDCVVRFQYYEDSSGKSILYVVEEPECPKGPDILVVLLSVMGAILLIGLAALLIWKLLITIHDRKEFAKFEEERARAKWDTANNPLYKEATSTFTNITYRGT
Sequence of GP IIb/IIIa (P08514 32-887 limits assumed): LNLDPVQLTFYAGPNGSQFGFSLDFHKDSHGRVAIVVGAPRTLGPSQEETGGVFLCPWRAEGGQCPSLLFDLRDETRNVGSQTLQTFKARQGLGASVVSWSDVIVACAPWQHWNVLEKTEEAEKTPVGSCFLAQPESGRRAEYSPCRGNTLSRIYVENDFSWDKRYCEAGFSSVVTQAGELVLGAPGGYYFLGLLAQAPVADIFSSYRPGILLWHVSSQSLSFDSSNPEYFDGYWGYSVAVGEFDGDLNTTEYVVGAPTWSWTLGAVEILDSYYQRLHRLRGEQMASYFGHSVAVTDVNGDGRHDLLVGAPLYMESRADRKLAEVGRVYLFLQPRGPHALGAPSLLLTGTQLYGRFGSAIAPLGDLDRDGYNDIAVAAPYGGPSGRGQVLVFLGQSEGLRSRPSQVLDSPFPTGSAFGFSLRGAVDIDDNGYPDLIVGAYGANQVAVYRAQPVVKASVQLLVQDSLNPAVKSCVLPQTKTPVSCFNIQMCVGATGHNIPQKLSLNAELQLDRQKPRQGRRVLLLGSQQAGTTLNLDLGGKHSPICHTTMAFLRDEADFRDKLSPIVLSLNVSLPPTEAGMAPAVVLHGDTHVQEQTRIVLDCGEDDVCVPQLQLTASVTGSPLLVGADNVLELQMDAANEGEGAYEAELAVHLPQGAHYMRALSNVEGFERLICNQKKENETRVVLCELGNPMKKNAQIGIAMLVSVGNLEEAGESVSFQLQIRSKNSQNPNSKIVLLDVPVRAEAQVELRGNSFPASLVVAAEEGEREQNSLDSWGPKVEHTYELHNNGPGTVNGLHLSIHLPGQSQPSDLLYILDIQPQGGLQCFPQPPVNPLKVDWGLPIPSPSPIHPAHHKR
Sequence of GP IIb/IIIa (P08514 891-1039 partner limits assumed): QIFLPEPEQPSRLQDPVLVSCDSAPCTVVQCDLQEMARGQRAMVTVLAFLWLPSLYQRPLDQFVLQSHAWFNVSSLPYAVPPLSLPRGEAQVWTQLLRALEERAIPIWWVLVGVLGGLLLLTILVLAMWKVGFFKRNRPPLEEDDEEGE
Sequence of GP IIb/IIIa (P05106 27-788): as the sequence (P05106 27-788) above
T2 sequence (P08648 42-894 limits assumed): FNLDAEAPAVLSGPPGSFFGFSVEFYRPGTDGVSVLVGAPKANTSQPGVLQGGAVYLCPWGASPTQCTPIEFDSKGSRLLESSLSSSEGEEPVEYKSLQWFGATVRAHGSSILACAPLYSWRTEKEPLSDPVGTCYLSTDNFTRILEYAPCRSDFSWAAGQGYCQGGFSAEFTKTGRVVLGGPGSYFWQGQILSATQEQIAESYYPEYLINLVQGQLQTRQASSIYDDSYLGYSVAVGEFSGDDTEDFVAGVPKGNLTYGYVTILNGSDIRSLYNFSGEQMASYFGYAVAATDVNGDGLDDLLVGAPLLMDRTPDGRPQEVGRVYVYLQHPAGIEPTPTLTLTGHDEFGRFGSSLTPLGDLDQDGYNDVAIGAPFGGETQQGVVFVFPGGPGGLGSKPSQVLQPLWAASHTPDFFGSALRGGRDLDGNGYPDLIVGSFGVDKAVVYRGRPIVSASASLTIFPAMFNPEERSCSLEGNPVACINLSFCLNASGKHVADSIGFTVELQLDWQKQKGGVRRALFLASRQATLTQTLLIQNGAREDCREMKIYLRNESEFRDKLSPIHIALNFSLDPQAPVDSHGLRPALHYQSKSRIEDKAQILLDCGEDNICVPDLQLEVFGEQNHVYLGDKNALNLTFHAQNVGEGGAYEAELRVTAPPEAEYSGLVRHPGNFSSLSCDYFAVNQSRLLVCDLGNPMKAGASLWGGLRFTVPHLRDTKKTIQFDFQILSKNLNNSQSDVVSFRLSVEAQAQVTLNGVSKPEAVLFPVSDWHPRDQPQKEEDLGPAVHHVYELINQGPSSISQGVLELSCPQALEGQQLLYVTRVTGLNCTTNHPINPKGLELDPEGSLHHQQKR
T2 sequence (P08648 895-1049 partner limits assumed): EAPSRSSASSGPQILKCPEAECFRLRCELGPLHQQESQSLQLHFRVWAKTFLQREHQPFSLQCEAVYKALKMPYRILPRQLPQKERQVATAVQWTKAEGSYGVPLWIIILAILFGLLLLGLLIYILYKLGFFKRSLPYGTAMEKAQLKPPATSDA
T2 sequence (P05556 21-798): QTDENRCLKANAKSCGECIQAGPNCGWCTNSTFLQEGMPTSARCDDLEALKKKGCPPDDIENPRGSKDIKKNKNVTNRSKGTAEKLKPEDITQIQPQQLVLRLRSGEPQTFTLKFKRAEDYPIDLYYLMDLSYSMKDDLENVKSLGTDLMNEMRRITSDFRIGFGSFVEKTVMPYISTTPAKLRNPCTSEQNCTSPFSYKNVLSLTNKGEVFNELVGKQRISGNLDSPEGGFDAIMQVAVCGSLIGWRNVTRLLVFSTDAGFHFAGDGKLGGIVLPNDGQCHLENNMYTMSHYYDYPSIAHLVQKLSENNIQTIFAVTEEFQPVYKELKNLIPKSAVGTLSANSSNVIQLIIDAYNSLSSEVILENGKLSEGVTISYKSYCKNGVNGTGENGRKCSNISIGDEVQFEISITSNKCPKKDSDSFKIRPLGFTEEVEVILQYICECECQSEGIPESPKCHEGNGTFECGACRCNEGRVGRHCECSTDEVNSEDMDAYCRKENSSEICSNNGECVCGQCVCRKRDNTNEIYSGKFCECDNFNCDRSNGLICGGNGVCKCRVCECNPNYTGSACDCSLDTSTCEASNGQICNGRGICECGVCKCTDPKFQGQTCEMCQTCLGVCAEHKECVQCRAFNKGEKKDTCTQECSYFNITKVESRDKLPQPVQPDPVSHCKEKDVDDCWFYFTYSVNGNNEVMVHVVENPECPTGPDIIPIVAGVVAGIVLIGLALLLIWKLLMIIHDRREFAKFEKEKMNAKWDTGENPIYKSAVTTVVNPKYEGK

SMILES: O=C(NC[C@H](NS(=O)(=O)c1ccccc1)C(=O)O)c1ccc(N2CCCN(C3=NCCCN3)CC2)cc1 [Example 6, (2S)-Benzenesulfonylamino-3-[4-{4-(1,4,5,6-tetrahydropyrimidin-2-yl)-[1,4]diazepan-1-yl}-benzoylamino]-propionic acid]
human platelet aggregation inhibition (in words) [1]: very strongly inhibited human platelet aggregation | pIC50 [1]: 7.30

SMILES: C[C@@H]1CN(c2ccc(C(=O)NC[C@H](NS(=O)(=O)c3ccccc3)C(=O)O)cc2)CCN1C1=NCCCN1 [Example 12, (2S)-Benzenesulfonylamino-3-[4-{(3R)-methyl-4-(1,4,5,6-tetrahydropyrimidin-2-yl)-piperazin-1-yl}-benzoylamino]-propionic acid]
human platelet aggregation inhibition (in words) [1]: very strongly inhibited human platelet aggregation

SMILES: N=C(N)N1CCN(c2ccc(C(=O)NC[C@H](NS(=O)(=O)c3ccccc3)C(=O)O)cc2)CC1 [Example 34, (2S)-Benzenesulfonylamino-3-[4-{4-(amidino)-piperazin-1-yl}-benzoylamino]-propionic Acid]
human platelet aggregation inhibition (in words) [1]: very strongly inhibited human platelet aggregation | pIC50 [1]: 7.42

SMILES: Cc1cc(C)c(S(=O)(=O)N[C@@H](CNC(=O)c2ccc(N3CCN(c4ncccn4)CC3)c(F)c2)C(=O)O)c(C)c1 [Example 82, 3-[3-Fluoro-4-{4-(pyrimidin-2-yl)-piperazin-1-yl}-benzoylamino]-(2S)-(2,4,6-trimethyl-benzenesulfonylamino)-propionic Acid]
GP IIb/IIIa antagonistic activity (in words) (GP IIb/IIIa): extremely high GP IIb/IIIa antagonistic activity

SMILES: Cc1cc(C)c(S(=O)(=O)N[C@@H](CNC(=O)c2ccc(N3CCN(C4=NCCCN4)CC3)c(F)c2)C(=O)O)c(C)c1 [Example 83, 3-[3-Fluoro-4-{4-(1,4,5,6-tetrahydropyrimidin-2-yl)-piperazin-1-yl}-benzoylamino]-(2S)-(2,4,6-trimethyl-benzenesulfonylamino)-propionic Acid]
pIC50 [2]: 8.24 | pIC50 [3]: 4.89

Now from value to compound, other results behind:

oral absorption (Oral absorption in rats): excellent oral absorption
SMILES: O=C(NC[C@H](NS(=O)(=O)c1ccccc1)C(=O)O)c1ccc(N2CCCN(c3ncccn3)CC2)cc1 [Example 5, (2S)-Benzenesulfonylamino-3-[4-{4-(pyrimidin-2-yl) -[1,4]diazepan-1-yl}-benzoylamino]-propionic acid]

pIC50 [1]: 7.30
SMILES: CC1CN(c2ccc(C(=O)NC[C@H](NS(=O)(=O)c3ccccc3)C(=O)O)cc2)CCN1C1=NCCCN1 (stereo partly drawn) [Example 9, (2S)-Benzenesulfonylamino-3-[4-{3-methyl-4-(1,4,5,6-tetrahydropyrimidin-2-yl)-piperazin-1-yl}-benzoylamino]-propionic acid]
human platelet aggregation inhibition (in words) [1]: very strongly inhibited human platelet aggregation

pIC50 (GP IIb/IIIa): ≥ 9.70
SMILES: O=C(NC[C@H](NS(=O)(=O)c1ccccc1)C(=O)O)c1ccc(N2CCN(C3=NCCCN3)CC2)cc1F [Example 56, (2S)-Benzenesulfonylamino-3-[2-fluoro-4-{4-(1,4,5,6-tetrahydropyrimidin-2-yl)-piperazin-1-yl}-benzoylamino]-propionic Acid]

pIC50 [2]: 8.46 | pIC50 (GP IIb/IIIa): ≥ 9.70 | pIC50 [3]: 4.20
SMILES: O=C(NC[C@H](NS(=O)(=O)c1ccccc1)C(=O)O)c1ccc(N2CCN(C3=NCCCN3)CC2)c(Cl)c1 [Example 59, (2S)-Benzenesulfonylamino-3-[3-chloro-4-{4-(1,4,5,6-tetrahydropyrimidin-2-yl)-piperazin-1-yl}-benzoylamino]-propionic Acid]

pIC50 (GP IIb/IIIa): ≥ 9.70
SMILES: O=C(NC[C@H](NS(=O)(=O)c1ccccc1)C(=O)O)c1ccc(N2CCN(C3=NCCCN3)CC2)cc1Cl [Example 62, (2S)-Benzenesulfonylamino-3-[2-chloro-4-{4-(1,4,5,6-tetrahydropyrimidin-2-yl)-piperazin-1-yl}-benzoylamino]-propionic Acid]

integrin αvβ3 antagonistic activity (in words) [2]: high integrin αvβ3 antagonistic activity | pIC50 [2]: 8.20
SMILES: Nc1c(N2CCN(C3=NCCCN3)CC2)ccc(C(=O)NC[C@H](NS(=O)(=O)c2ccccc2)C(=O)O)c1Cl [Example 65, 3-[3-Amino-2-chloro-4-{4-(1,4,5,6-tetrahydropyrimidin-2-yl)-piperazin-1-yl}-benzoylamino]-(2S)-benzenesulfonylamino-propionic Acid]
GP IIb/IIIa antagonistic activity (in words) (GP IIb/IIIa): extremely high GP IIb/IIIa antagonistic activity

integrin αvβ3 antagonistic activity (in words) [2]: high integrin αvβ3 antagonistic activity | pIC50 (GP IIb/IIIa): ≥ 9.70
SMILES: C[C@H]1CN(c2ccc(C(=O)NC[C@H](NS(=O)(=O)c3ccccc3)C(=O)O)cc2F)CCN1C1=NCCCN1 [Example 72, (2S)-Benzenesulfonylamino-3-[3-fluoro-4-{(3S)-methyl-4-(1,4,5,6-tetrahydropyrimidin-2-yl)-piperazin-1-yl}-benzoylamino]-propionic Acid]
GP IIb/IIIa antagonistic activity (in words) (GP IIb/IIIa): extremely high GP IIb/IIIa antagonistic activity
